According to US7094909B2, “HIV protease inhibitors, compositions containing the same, their pharmaceutical uses and materials for their synthesis” (priority 2001, dated 2006):

What was measured:
[1] = target: T1, HIV-1 protease (Q7S mutant form) (Human immunodeficiency virus type 1 group M subtype B, UniProt P04585, Q495S); assay: HIV-1 Protease RET assay; type: biochemical; settings: Ave. Ki (nM), RET assay, Q7S enzyme, Morrison tight binding fit
T1 construct: made in house
Method in brief: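 Ki values fitted with the Morrison tight-binding equation from steady-state RET cleavage (ex 340, em 490 nm) of 5 μM RE(EDANS)SQNYPIVQK(DABCYL)R. Buffer pH 4.8 acetate, 1M NaCl, 5 mM DTT, 1 mg/ml BSA, 10% DMSO; 2 nM Q7S mutant dimer, 37 °C, 12 min.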

[2] = tested on: HIV-1 NL4-3 or HIV-1 NL4-3(I84V/L90M); assay: Susceptibility assay, p24 ELISA in infected MT-2 cells; type: cell-based; settings: Human immunodeficiency virus 1, NL43, MT2, read-out: EC50 or IC50 (mM), values without asterisk (EC50)
Procedure: T-cell lines, CEM-SS, and MT-2, and viruses HIV-1 RF and HIV-1 NL4-3 (pNL4-3) were obtained from the National Institutes of Health (AIDS Research and Reference Reagent Program, Bethesda, Md.).
Compounds were tested in phenotypic susceptibility assays at Virologic, Inc., (See Petropoulos C. J., Parkin N. T., Limoli K. L., Lie Y. S., Wrin T., Huang W., Tian H., Smith D., Winslow G. A., Capon D J, Whitcomb J M. 2000, “A novel phenotypic drug susceptibility assay for human immunodeficiency virus type 1,” Antimicrob Agents Chemother 44(4):920–928) or using the assay described here. MT-2 cells were infected with either HIV-1 NL4-3 or HIV-1 NL4-3([…]) and incubated in the presence of serial 0.5 log dilutions of test compounds. Three days later, culture supernatants were collected and virus production, as determined by p24 ELISA, was assayed. Percent inhibition was calculated as p24 concentration in compound-treated samples as compared to infected, compound-free controls. Inhibition of viral replication is determined by measuring reduction in HIV p24 present in the culture supernatant, using a Beckman-Coulter p24HIV-1 Ag EIA kit and following the supplied protocol. Absorbance is read on a MRX microplate reader (Dynex Technologies). The EC50 was calculated as the concentration of compound that effected a decrease in the p24 production by infected, compound-treated cells to 50% of that produced by infected, compound-free cells.

[3] = tested on: HIV-1 (HIV-1 RF, HIV-1 NL4-3) in CEM-SS / MT-2 cells; assay: Cytopathic effect (CPE) inhibition assay (XTT/MTT dye reduction); type: cell-based; settings: Human immunodeficiency virus 1, NL43; read-out: Ave CPE EC50
Method in brief: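 Readout is XTT reduction (A450, 4 h) after six days of culturing virus-infected (moi 0.025–0.819) or mock-infected CEM-SS/MT-2 cells, 2×10^4 per well, with half-log compound series. Antiviral EC50 and cytotoxic CC50 are relative to uninfected compound-free cells. Therapeutic index is CC50 divided by EC50.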

SMILES	Ki [1] [nM]	EC50 [2] [nM]	EC50 [3] [nM]
Cc1c(O)cccc1C(=O)N[C@@H](Cc1ccccc1)[C@H](O)C(=O)N1CSC2(CCCC2)[C@H]1C(=O)N[C@H]1CCc2ccccc21 [Example B83, (R)-3-((2S,3S)-2-Hydroxy-3-{[1-(3-hydroxy-2-methyl-phenyl)-methanoyl]-amino}-4-phenyl-butanoyl)-1-thia-3-aza-spiro[4.4]nonane-4-carboxylic acid (S)-indan-1-ylamide]	< 0.1	202	9
Cc1ccccc1CNC(=O)[C@H]1N(C(=O)[C@@H](O)[C@H](Cc2ccccc2)NC(=O)COc2c(Cl)cccc2Cl)CSC1(C)C [Example B77, (R)-3-{(2S,3S)-3-[2-(2,6-Dichloro-phenoxy)-acetylamino]-2-hydroxy-4-phenyl-butyryl}-5,5-dimethyl-thiazolidine-4-carboxylic acid 2-methyl-benzylamide]	< 0.1	1630	143
Cc1c(O)cccc1C(=O)N[C@@H](Cc1ccccc1)[C@H](O)C(=O)N1CSC(C)(C)[C@H]1C(=O)NCc1ccoc1 [Example A45, (R)-3-((2S,3S)-2-Hydroxy-3-{[1-(3-hydroxy-2-methyl-phenyl)-methanoyl]-amino}-4-phenyl-butanoyl)-5,5-dimethyl-thiazolidine-4-carboxylic acid (furan-3-ylmethyl)-amide]	< 0.1	48	34
Cc1c(O)cccc1C(=O)N[C@@H](Cc1ccccc1)[C@H](O)C(=O)N1CC(F)(F)C(C)(C)[C@H]1C(=O)NCc1cccs1 [Example C22, (S)-4,4-Difluoro-1-[(2S,3S)-2-hydroxy-3-(3-hydroxy-2-methyl-benzoylamino)-4-phenyl-butyryl]-3,3-dimethyl-pyrrolidine-2-carboxylic acid (thiophen-2-ylmethyl)-amide]	< 0.1	62	15
Cc1c(O)cccc1C(=O)N[C@@H](Cc1ccccc1)[C@H](O)C(=O)N1CSC(C)(C)[C@H]1C(=O)NCc1ccsc1 [Example A40, (R)-3-((2S,3S)-2-Hydroxy-3-{[1-(3-hydroxy-2-methyl-phenyl)-methanoyl]-amino}-4-phenyl-butanoyl)-5,5-dimethyl-thiazolidine-4-carboxylic acid (thiophen-3-ylmethyl)-amide]	< 0.1	109	40
Cc1c(O)cccc1C(=O)N[C@@H](Cc1ccccc1)[C@H](O)C(=O)N1CC(F)(F)C(C)(C)[C@H]1C(=O)NCC(C)C [Example C21, 4,4-Difluoro-1-[2-hydroxy-3-(3-hydroxy-2-methyl-benzoylamino)-4-phenyl-butyryl]-3,3-dimethyl-pyrrolidine-2-carboxylic acid isobutyl-amide]	< 0.1	81	15
CCCNC(=O)[C@H]1N(C(=O)[C@@H](O)[C@H](Cc2ccccc2)NC(=O)c2cccc(O)c2C)CC(F)(F)C1(C)C [Example C19, (S)-4,4-Difluoro-1-((2S,3S)-2-hydroxy-3-{[1-(3-hydroxy-2-methyl-phenyl)-methanoyl]-amino}-4-phenyl-butanoyl)-3,3-dimethyl-pyrrolidine-2-carboxylic acid propylamide]	< 0.1	84	55
Cc1ccccc1CNC(=O)[C@H]1N(C(=O)[C@@H](O)[C@H](Cc2ccccc2)NC(=O)CC(F)(F)F)CSC1(C)C [Example B19, (R)-3-[(2S,3S)-2-Hydroxy-4-phenyl-3-(3,3,3-trifluoropropionylamino)-butyryl]-5,5-dimethyl-thiazolidine-4-carboxylic acid 2-methyl-benzylamide]	1.4	1300	1600
CCCNC(=O)[C@H]1N(C(=O)[C@@H](O)[C@H](Cc2ccccc2)NC(=O)c2cccc(O)c2C)CSC12CCCC2 [Example C33, (R)-3-((2S,3S)-2-Hydroxy-3-{[1-(3-hydroxy-2-methyl-phenyl)-methanoyl]-amino}-4-phenyl-butanoyl)-1-thia-3-aza-spiro[4.4]nonane-4-carboxylic acid propylamide]	0.13	1270	45
Cc1ccccc1CNC(=O)[C@H]1N(C(=O)[C@@H](O)[C@H](Cc2ccccc2)NC(=O)c2cccc(O)c2C)CSC12CCCCC2 [Example C31, 3-(2-Hydroxy-3-{[1-(2-methyl-3-hydroxy-phenyl)-methanoyl]-amino}-4-phenyl-butanoyl)-1-thia-3-aza-spiro[4.5]decane-4-carboxylic acid 2-methyl-benzylamide]	0.17	1070	31
Cc1c(O)cccc1C(=O)N[C@@H](Cc1ccccc1)[C@H](O)C(=O)N1CC(F)(F)C(C)(C)[C@H]1C(=O)NCc1ccc(F)cc1Cl [Example C18, (S)-4,4-Difluoro-1-((2S,3S)-2-hydroxy-3-{[1-(3-hydroxy-2-methyl-phenyl)-methanoyl]-amino}-4-phenyl-butanoyl)-3,3-dimethyl-pyrrolidine-2-carboxylic acid 2-chloro-4-fluoro-benzylamide]	< 0.1	618	148
Cc1c(O)cccc1C(=O)N[C@@H](Cc1ccccc1)[C@H](O)C(=O)N1CSC(C)(C)[C@H]1C(=O)N[C@H]1CCOc2c(F)cc(F)cc21 [Example A55, (R)-3-((2S,3S)-2-Hydroxy-3-{[1-(3-hydroxy-2-methyl-phenyl)-methanoyl]-amino}-4-phenyl-butanoyl)-5,5-dimethyl-thiazolidine-4-carboxylic acid ((S)-6,8-difluoro-chroman-4-yl)-amide]	0.21	798	54
Cc1c(O)cccc1C(=O)N[C@@H](Cc1ccccc1)[C@H](O)C(=O)N1CSC2(CCCCC2)[C@H]1C(=O)N[C@@H]1C=CCCC1 [Example B84, (R)-3-((2S,3S)-2-Hydroxy-3-{[1-(3-hydroxy-2-methyl-phenyl)-methanoyl]-amino}-4-phenyl-butanoyl)-1-thia-3-aza-spiro[4.5]decane-4-carboxylic acid (S)-cyclohex-2-enylamide]	< 0.1	686	9
Cc1c(O)cccc1C(=O)N[C@@H](Cc1ccccc1)[C@H](O)C(=O)N1CC(F)(F)C(C)(C)[C@H]1C(=O)NCc1ccc2c(c1)OCO2 [Example C26, (S)-4,4-Difluoro-1-[(2S,3S)-2-hydroxy-3-(3-hydroxy-2-methyl-benzoylamino)-4-phenyl-butyryl]-3,3-dimethyl-pyrrolidine-2-carboxylic acid (1,3-benzodioxol-5-ylmethyl)-amide]	< 0.1	131	76
Cc1occc1CNC(=O)[C@H]1N(C(=O)[C@@H](O)[C@H](Cc2ccccc2)NC(=O)c2cccc(O)c2C)CSC1(C)C [Example A53, (R)-3-((2S,3S)-2-Hydroxy-3-{[1-(3-hydroxy-2-methyl-phenyl)-methanoyl]-amino}-4-phenyl-butanoyl)-5,5-dimethyl-thiazolidine-4-carboxylic acid (2-methyl-furan-3-ylmethyl)-amide]	< 0.1	70	28
Cc1c(O)cccc1C(=O)N[C@@H](Cc1ccccc1)[C@H](O)C(=O)N1CC(F)(F)C(C)(C)[C@H]1C(=O)N[C@H]1CCOc2ccccc21 [Example C24, (S)-4,4-Difluoro-1-[(2S,3S)-2-hydroxy-3-(3-hydroxy-2-methyl-benzoylamino)-4-phenyl-butyryl]-3,3-dimethyl-pyrrolidine-2-carboxylic acid (S)-1-benzopyran-4-y]	< 0.1	74	19
Cc1c(O)cccc1C(=O)N[C@@H](Cc1ccccc1)[C@H](O)C(=O)N1CSC2(CCCC2)[C@H]1C(=O)N[C@H]1CCCc2ccccc21 [Example C37, (R)-3-((2S,3S)-2-Hydroxy-3-{[1-(3-hydroxy-2-methyl-phenyl)-methanoyl]-amino}-4-phenyl-butanoyl)-1-thia-3-aza-spiro[4.4]nonane-4-carboxylic acid (1,2,3,4-tetrahydro-naphthalen-1-yl)-amide]	0.61	1290	27
